Marks after values point to notes of the source that are not given here.
Key:
[1] = system: postmenopausal women with atrophic vaginitis; assay: Patients with vaginal pH values below 5.5, Example 3; format: in vivo
Description: (§1) Efficacy was measured with composite scores of vaginal symptoms (dryness, soreness, and irritation) and vaginal health (secretions, epithelial integrity, surface thickness, and pH). Vaginal and urethral cytology analyses were also performed, and the vaginal maturation value was determined. Safety assessments included endometrial biopsies.
(§2) All vaginal tablets were identical in appearance. Patients inserted 1 tablet daily for 14 days. Thereafter, patients inserted 1 tablet twice per week (Sunday and Thursday) for the remainder of the trial. Patients were to insert the tablets at the same time each day (preferably at bedtime). Patients were evaluated for efficacy and safety at Week—4 (screening), Week 0 (baseline), and Weeks 2, 7, and 12.
Investigators used a severity scale of none, mild, moderate, or severe to assess vaginal health characteristics (secretions, epithelial integrity, surface thickness, color, and pH). Severity categories were assigned ascending scores from 0 (none) to 3 (severe) for analysis. To avoid multiple endpoint issues, composite scores were defined. A composite score for vaginal health was defined as the average of the individual vaginal health characteristic scores. The composite score and the change from baseline for the composite score were examined at each time point. Differences within and between treatment groups were analyzed using an analysis of variance (ANOVA).

[2] = system: superficial urethral cells; assay: Urethral cytology, percentage of superficial cells, Example 3; format: in vivo, postmenopausal women
Description: as §1, §2
(§3) Vaginal and urethral cell samples were harvested and analyzed by independent cytologists to determine the percentages of parabasal, intermediate, and superficial cells. Maturation values were calculated according to the following equation: maturation value=1.0×[superficial cells, %]+0.5×[intermediate cells, %] Endometrial biopsies were performed at the end of the study in patients with intact uteri. The number of patients with abnormal biopsies was compared between treatment groups.

vaginal mucosal cells = assay: Maturation value of vaginal mucosal cells, Example 2; format: in vivo, postmenopausal women
Description: (§4) Maturation values of vaginal mucosal cells were assessed as an indicator of changes in the condition of the vaginal mucosa in response to treatment.
After the screening visit, patients received no study treatment during the 4-week run-in period prior to the baseline visit. […] The vaginal tablets were identical in appearance. Patients inserted 1 tablet intravaginally, once daily for the initial 2 weeks of the study and then twice per week (Sunday and Thursday) for the remaining 10 weeks. Patients were instructed to use their medication at a consistent time each day, preferably in the morning.
(§5) Upon presentation to the clinic for each visit, a vaginal cytology specimen was obtained. Patients then inserted the tablets. […] The blood samples obtained at 30 minutes before insertion, and at 6, 12, and 24 hours after insertion were also used to determine the FSH concentration via immunoradiometric assay.
The maturation value of vaginal mucosal cells was calculated from the percentages of parabasal, intermediate, and superficial cells according to the following equation: maturation value=0×[parabasal cells, %]+0.5×[intermediate cells, %]+1.0×[superficial cells, %]

[3] = system: follicle stimulating hormone (FSH); assay: Serum FSH concentration (immunoradiometric assay), Example 2; format: in vivo, postmenopausal women; conditions: 25 μg E2, Week 12
Description: as §4, §5
Data for area under the curve and maximal concentration were converted to a logarithmic scale, and changes from first dose (at the baseline visit) in the logarithmic values were estimated using 95% confidence intervals derived from paired t-tests. […] Differences within treatment groups in FSH concentration were determined using the Wilcoxon signed rank test based on changes from baseline in mean concentrations at weeks 2 and 12. Mean concentrations were defined as the average concentrations obtained at 30 minutes before tablet insertion and 6, 12, and 24 hours after insertion.

[4] = system: superficial vaginal and urethral cells; assay: Subjects by percentages of both superficial vaginal and urethral cells, Example 3; format: in vivo, postmenopausal women
Description: as §2, §3

endometrium = assay: Endometrial biopsy at end of study, Example 3; format: in vivo, postmenopausal women
Description: as §1, §2, §3

[5] = system: superficial vaginal cells; assay: Vaginal cytology, percentage of superficial cells, Example 3; format: in vivo, postmenopausal women
Description: as §1, §2, §3

vaginal cells = assay: Vaginal maturation value, Example 3; format: in vivo, postmenopausal women; conditions: 25 or 10 μg E2 (active treatment groups), Week 12
Description: as §1, §2, §3

Endometrial biopsy result Abnormal (hyperplasia or carcinoma), number of patients (endometrium; 10 μg E2, Week 12, N = 32): 0
Endometrial biopsy result Abnormal (hyperplasia or carcinoma), percentage of patients (endometrium; 10 μg E2, Week 12, N = 32): 0.0%
Endometrial biopsy result Abnormal (hyperplasia or carcinoma), percentage of patients (endometrium; 25 μg E2, Week 12, N = 32): 3.1%
Compound: C[C@]12CC[C@@H]3c4ccc(O)cc4CC[C@H]3[C@@H]1CC[C@@H]2O [E2, 17β-estradiol]
Number of patients with vaginal pH values below 5.5 ([1]; 10 μg E2, Week 0): 27/89
Number of patients with vaginal pH values below 5.5 ([1]; 10 μg E2, Week 2): 67/84
Number of patients with vaginal pH values below 5.5 ([1]; 10 μg E2, Week 7): 57/80
Number of patients with vaginal pH values below 5.5 ([1]; 10 μg E2, Week 12): 54/71
Number of patients with vaginal pH values below 5.5 ([1]; 25 μg E2, Week 0): 31/90
Number of patients with vaginal pH values below 5.5 ([1]; 25 μg E2, Week 2): 64/87
Number of patients with vaginal pH values below 5.5 ([1]; 25 μg E2, Week 7): 71/83
Percentage of patients with vaginal pH values below 5.5 ([1]; 25 μg E2, Week 7): 85.5%
Number of patients with vaginal pH values below 5.5 ([1]; 25 μg E2, Week 12): 63/79
Percentage of patients with vaginal pH values below 5.5 ([1]; 25 or 10 μg E2 (active treatment groups), Week 12): 75%
Mean percentage of superficial urethral cells ([2]; 10 μg E2, Week 0): 2.5%
Mean change from baseline in percentage of superficial urethral cells ([2]; 10 μg E2, Week 12): 6.8%
Mean percentage of superficial urethral cells ([2]; 10 μg E2, Week 12): 9.5%
Mean percentage of superficial urethral cells ([2]; 25 μg E2, Week 0): 3.2%
Mean change from baseline in percentage of superficial urethral cells ([2]; 25 μg E2, Week 12): 7.5%
Mean percentage of superficial urethral cells ([2]; 25 μg E2, Week 12): 11.2%
Mean maturation value (vaginal mucosal cells; 10 μg E2, Week 0 (baseline), mean ± SD): 51.0
Number of patients with increases in maturation values from baseline (vaginal mucosal cells; 10 μg E2, Week 12): 14 patients
Number of patients with increases in maturation values from baseline (vaginal mucosal cells; 25 μg E2, Week 12): 13 patients
Mean change from baseline in maturation value (vaginal mucosal cells; 25 μg E2, Week 12, mean ± SD, P ≦ .01): 7.0 ± 8.7^b
Number of patients with mean FSH concentrations below 35 [3]: 3 patients
Number of subjects with both superficial vaginal and urethral cells less than or equal to 5% ([4]; 10 μg E2, Week 0): 53 subjects
Number of subjects with increases in percentages of both superficial vaginal and urethral cells ([4]; 10 μg E2, Week 12): 44 subjects
Number of subjects with both superficial vaginal and urethral cells less than or equal to 5% ([4]; 25 μg E2, Week 0): 57 subjects
Number of subjects with increases in percentages of both superficial vaginal and urethral cells ([4]; 25 μg E2, Week 12): 52 subjects
Mean percentage of superficial vaginal cells ([5]; 10 μg E2, Week 0): 3.1%
Mean change from baseline in percentage of superficial vaginal cells ([5]; 10 μg E2, Week 2): 25.0^a %
Mean percentage of superficial vaginal cells ([5]; 25 μg E2, Week 0): 4.0%
Maturation value (vaginal cells): approximately 60%

Reference: patent US7018992B2, “Hormone composition” (Novo Nordisk A/S, priority 2000, dated 2006)
